Reference: PubChem BioAssay AID2060887 (Molecular Pharmacology Branch, DTP, NCI, 2025)

Test system: 782815-120-R-J1-PDC complex spheroid viability
Assay: Anticancer human tumor 782815-120-R-J1-PDC patient-derived colon adenocarcinoma cell line growth inhibition [RAS]
Details: for viability, T/C: stronger effect = lower value; active = viability on the fitted dose curve at most 10% of control; inactive = the rest
Excerpt: RAS pathway inhibitors in Combinations in Complex Spheroids
A high-throughput screen of multi-cell type tumor spheroids was designed to identify active combinations of RAS pathway inhibitors and targeted small molecules. Complex spheroids include a stromal component modeled by human endothelial cells (HUVEC) and fibroblasts modeled by human mesenchymal stem cells (MSCs). The concentration ranges selected for each drug and investigational agent were based upon clinically achievable concentrations if the clinical Cmax of the agent was known.
Compounds. The drugs and investigational agents: abemaciclib (NSC768073), cobimetinib (NSC768068), divarasib (GDC6063, NSC841802), docetaxel (NSC628503), GDC-1971 (RLY-1971, NSC841576), gemcitabine (NSC613327), inavolisib (NSC800729), ipatasertib (NSC767898), KB-0742 (NSC834161), MRTX-1133 (NSC836407), osimertinib (NSC779217), RMC-4630 (NSC839698), RMC-6236 (NSC851965), RMC-6291 (NSC852671), Ro-3306 (NSC812927), sapanisertib (NSC764658), SN-38 (NSC673596), staurosporine (NSC755774), SY5609 (NSC837396), and tovorafenib (DAY101, NSC766906), were obtained from the National Cancer Institute (NCI) Developmental Therapeutics Program Chemical Repository. The FDA-approved anticancer drug set is available from the NCI Developmental Therapeutics Program. […] The stock solutions were prepared in dimethyl sulfoxide (DMSO, Sigma-Aldrich, St. Louis, MO, cat. D2650) at 800-fold the tested concentration and stored at -70 degrees C prior to their use. All drugs and investigational agents were tested over a range starting from a high concentration at or near the clinical Cmax and decreasing in half-log increments. If the clinical Cmax for an agent had not been determined, the highest concentration tested was 10 microM.
Cell Culture. All cells were maintained in an incubator at 37 degrees C and 5% CO2 with 95% humidity. The PDC lines were cultured according to standard operating procedures established by the NCI PDMR. All PDCs were thawed and cultured in Matrigel-coated flasks prepared with a working solution of 1X Ham's F-12 nutrient mix, without supplementation (Invitrogen, Waltham, MA, cat. 11765054), 100 U/mL penicillin-streptomycin (Invitrogen, cat. 15140122), and 2.5% Matrigel (Corning Inc., Corning, NY, cat. 354248) for the first three passages. The 362531-283-R-J2-PDC and 782815-120-R-J1-PDC lines were cultured in 6C/Colon 1B media, which includes advanced DMEM/F-12 (Thermo Fisher Scientific, cat. 12634028), 10 mM HEPES (Thermo Fisher Scientific, cat. 15630080), 1X GlutaMAX supplement (Thermo Fisher Scientific, cat. 35050061), 0.1 mg/mL primocin (InvivoGen, San Diego, CA, cat. ant-pm-2), 10% defined fetal bovine serum, heat inactivated (HyClone Laboratories Inc., Logan, UT, cat. SH30070.03HI), 50% L-WRN conditioned media (ATCC, cat. CRL-3276), 1.25 mM N-Acetyl-L-cysteine (Sigma-Aldrich, cat. A9165), 10 mM nicotinamide (Sigma-Aldrich, cat. N0636), 1X B-27 supplement (Thermo Fisher Scientific, cat. 17504044), 1X N-2 supplement (Thermo Fisher Scientific, cat. 17502048), 50 ng/mL human EGF (Thermo Fisher Scientific, cat. PHG0311), and 10 microM Y-27632 dihydrochloride (Tocris Bioscience, cat. 1254). The K12877-001-R-J1-PDC line was cultured in 6I media, which includes all 6C/Colon 1B media plus 10 ng/mL human FGF-10 (PeproTech, cat. 100-26), 1 ng/mL human FGF-2 (PeproTech, cat. 100-18B), 1 µM prostaglandin E2 (Tocris Bioscience, cat. 2296), […] hydrocortisone (Sigma-Aldrich, cat. H4001), and […] bovine insulin (Sigma-Aldrich, cat. I6634). The K86415-001-R-J1-PDC line was cultured in 6D media, which includes all 6C/Colon 1B media components minus the L-WRN conditioned media. The 485176-168-R4-J1-PDC was cultured in PANC media, which includes all 6C/Colon 1B media plus 100 ng/mL human FGF-10 (PeproTech, cat. 100-26), 500 nM SB-431542 (Selleckchem, cat. S1067), and 10 nM gastrin (Tocris Bioscience, cat. 3006). […]
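Note: spheroids exposed to compounds for 7 days before reading.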

CC1(O)CCCC1n1c(=O)c(C(F)F)cc2cnc(NC3CCN(S(C)(=O)=O)CC3)nc21 (centres undefined) + C=CC(=O)N1CCN(c2nc(OCC3CCCN3C)nc3c(F)c(-c4nc(N)cc(C)c4C(F)(F)F)c(Cl)cc23)C(C)C1
3.45 µM: IC50 (curve of first compound, second compound 0.316 µM)
3.61 µM: IC50 (curve of first compound, second compound 0.1 µM)
2.36 µM: IC50 (curve of first compound, second compound 0.01 µM)
0.786 µM: IC50 (curve of first compound, second compound 1 µM)
3.64 µM: IC50 (curve of first compound, second compound 0.00316 µM)
inactive: viability, T/C (second compound 0.00316 µM, first compound 0.0316 µM) 61.5% | viability, T/C (second compound 0.00316 µM, first compound 0.1 µM) 53% | viability, T/C (second compound 0.00316 µM, first compound 0.316 µM) 54.5% | viability, T/C (second compound 0.00316 µM, first compound 1 µM) 57.6% | viability, T/C (second compound 0.00316 µM, first compound 3.16 µM) 53.8% | viability, T/C (second compound 0.00316 µM, first compound 10 µM) 22% | viability, T/C (second compound 0.01 µM, first compound 0.0316 µM) 72.5% | viability, T/C (second compound 0.01 µM, first compound 0.1 µM) 52.3% | viability, T/C (second compound 0.01 µM, first compound 0.316 µM) 53.3% | viability, T/C (second compound 0.01 µM, first compound 1 µM) 51.8% | viability, T/C (second compound 0.01 µM, first compound 3.16 µM) 52.1% | viability, T/C (second compound 0.01 µM, first compound 10 µM) 19% | viability, T/C (second compound 0.0316 µM, first compound 0.0316 µM) 58.7% | viability, T/C (second compound 0.0316 µM, first compound 0.1 µM) 56.4% | viability, T/C (second compound 0.0316 µM, first compound 0.316 µM) 49.2% | viability, T/C (second compound 0.0316 µM, first compound 1 µM) 55.1% | viability, T/C (second compound 0.0316 µM, first compound 3.16 µM) 51.8% | viability, T/C (second compound 0.0316 µM, first compound 10 µM) 22.1% | viability, T/C (second compound 0.1 µM, first compound 0.0316 µM) 65.4% | viability, T/C (second compound 0.1 µM, first compound 0.1 µM) 50.7% | viability, T/C (second compound 0.1 µM, first compound 0.316 µM) 51.3% | viability, T/C (second compound 0.1 µM, first compound 1 µM) 52.3% | viability, T/C (second compound 0.1 µM, first compound 3.16 µM) 54.2% | viability, T/C (second compound 0.1 µM, first compound 10 µM) 18.6% | viability, T/C (second compound 0.316 µM, first compound 0.0316 µM) 56.4% | viability, T/C (second compound 0.316 µM, first compound 0.1 µM) 52.8% | viability, T/C (second compound 0.316 µM, first compound 0.316 µM) 48.9% | viability, T/C (second compound 0.316 µM, first compound 1 µM) 50.9% | viability, T/C (second compound 0.316 µM, first compound 3.16 µM) 53.4% | viability, T/C (second compound 0.316 µM, first compound 10 µM) 19.8% | viability, T/C (second compound 1 µM, first compound 0.0316 µM) 61% | viability, T/C (second compound 1 µM, first compound 0.1 µM) 55.7% | viability, T/C (second compound 1 µM, first compound 0.316 µM) 47.5% | viability, T/C (second compound 1 µM, first compound 1 µM) 46.7% | viability, T/C (second compound 1 µM, first compound 3.16 µM) 44.9% | viability, T/C (second compound 1 µM, first compound 10 µM) 18.3%
3.38 µM: IC50 (curve of first compound, second compound 0.0316 µM)

CCC(CC)c1cc(NC2CCC(N)C2)n2nccc2n1 (centres undefined)
active: viability, T/C (compound 10 µM) 1.98% [middle of 4 runs]
inactive: viability, T/C (compound 0.0316 µM) 103% [middle of 4 runs] | viability, T/C (compound 0.1 µM) 93.2% [middle of 4 runs] | viability, T/C (compound 0.316 µM) 103% [middle of 4 runs] | viability, T/C (compound 1 µM) 99.6% [middle of 4 runs] | viability, T/C (compound 3.16 µM) 34.1% [middle of 4 runs]
2.34 µM [middle of 4 runs]: IC50 (curve of compound)
